What was measured:
Type in all cases: physicochemical
[1] = Stability of high purity amorphous Tiacumicin material on storage (XRPD)
Description: Stoe Stadi P; Mythen1K Detector; Cu-Kα1 radiation; standard measurement conditions: transmission; 40 kV and 40 mA tube power; curved Ge monochromator; 0.02°2θ step size, 12 s step time, 1.5-50.5°2θ scanning range; detector mode: step scan; 1°2θ detector step; standard sample preparation: 10 to 20 mg sample was placed between two acetate foils; sample holder: Stoe transmission sample holder; the sample was rotated during the measurement. Filenames of patterns recorded on this instrument consist of a three-digit number followed by a letter.
Bruker D8; Copper Ka radiation, 40 kV/40 mA; LynxEye detector, 0.02°2θ step size, 37 s step time.
The samples were generally measured without any special treatment other than the application of slight pressure to get a flat surface. Silicon single crystal sample holder types: a) standard holder for polymorphism screening, 0.1 mm deep, less than 20 mg sample required; b) 0.5 mm deep, 12 mm cavity diameter for c. 40 mg; c) 1.0 mm deep, 12 mm cavity diameter for c. 80 mg. All samples measured on the Bruker D8 are rotated during the measurement.
Several samples of high purity amorphous Tiacumicin B material were stored at 40° C./75% relative humidity.
Several samples of high purity amorphous Tiacumicin B material were stored at room temperature under normal light conditions.

[2] = Hygroscopicity / water uptake of high purity amorphous Tiacumicin material
From the text: Thus the high purity amorphous Tiacumicin material is relatively stable with respect to crystallization and suitable for long-term storage (e.g storage for 3 months, 6 months, 9 months etc.).

[3] = XRPD of Tiacumicin solvate forms during storage; settings: FIG. 8A / FIG. 9A
From the text: FIG. 8A: XRPD of the Tiacumicin solvate form a during storage. FIG. 9A: XRPD of the Tiacumicin solvate form β during storage. The obtained material comprised 16% w/w acetic acid as measured by TG-FTIR. The obtained material comprised 9% w/w isopropylacetate as measured by TG-FTIR.

Suitability for storage (stability with respect to crystallization) ([1]; as demonstrated in example 7)	Solid state by XRPD after storage ([1]; room temperature storage, at 3 months)	Solid state by XRPD after storage ([1]; stored at 40° C./75% relative humidity, XRPDs at start, 24 hours, 7 days and 1 month)	Solid state by XRPD after storage ([1]; stored at room temperature under normal light conditions, XRPDs at start, 1 month and 2 months)	Deliquescence [2]	Suitability for storage (XRPD during storage) [3]	Structure (SMILES)	Hygroscopicity (water uptake) ([2]; FIG. 7C)
suitable for storage	amorphous material	amorphous material	amorphous material	not deliquescent	–	CCc1c(Cl)c(O)c(Cl)c(O)c1C(=O)O[C@H]1[C@H](O)[C@H](OC)[C@H](OC/C2=C\C=C\C[C@H](O)/C(C)=C/[C@H](CC)[C@@H](O[C@@H]3OC(C)(C)[C@@H](OC(=O)C(C)C)[C@H](O)[C@@H]3O)/C(C)=C/C(C)=C/C[C@@H]([C@@H](C)O)OC2=O)O[C@@H]1C [Tiacumicin B]	hygroscopic with near linear water uptake
–	–	–	–	–	storage suitable	CCc1c(Cl)c(O)c(Cl)c(O)c1C(=O)O[C@H]1[C@H](O)[C@H](OC)[C@H](OC/C2=C\C=C\C[C@H](O)/C(C)=C/[C@H](CC)[C@@H](O[C@@H]3OC(C)(C)[C@@H](OC(=O)C(C)C)[C@H](O)[C@@H]3O)/C(C)=C/C(C)=C/C[C@@H]([C@@H](C)O)OC2=O)O[C@@H]1C [form α of Tiacumicin B, Tiacumicin B]	–

Source: US10227371B2, “Polymorphs and new solid states of tiacumicin B” (XELLIA PHARMACEUTICALS APS, priority 2014, dated 2019)
